# Assay results published in patent US10751396B2, “Early hyperlipidemia promotes endothelial activation via a caspase-1-sirtuin 1 pathway” (Temple University—Of The Commonwealth System of Higher …, priority 2015, dated 2020).
# Key:
# Assay type in all cases: cell-based, human
# caspase-1 = experiment: Caspase-1 activity assay (FAM-YVAD-FMK, flow cytometry) in HAECs; conditions: 6 h, oxLDL (100 μM), LPA (30 μM), LPC (30 μM)
# Method: (§1) Active caspase-1 level was determined with APO LOGIX kit (Cell Tech., Mountain View, Calif.). The kit contains a carboxyfluorescein (FAM) [Excitation/Emission (nm):490/520]-labeled peptide fluoromethyl ketone (FMK) caspase-1 inhibitor (FAM-YVAD-FMK), which irreversibly binds to active caspase-1. All procedures were performed according to the manufacturer's instruction. Briefly, HAECs (≤passage 9) were cultured in 6-well plates and serum starved overnight to quiescent the cells before treatment. Next day, HAECs were treated with indicated stimuli for 6 hr. Cells were then digested by trypsin-EDTA and suspended at 1×10^6 cells/ml. 150 μl of cell suspension were incubated at 37° C. with 1× FAM-YVAD-FMK for 1 hour then washed with 1× washing buffer. Unfixed caspase-1 stained cells were then incubated with 7-aminoactinomycin D (7-AAD; cell membrane integrity marker) (BD Pharmingen, San Diego, Calif.) for no more than 10 min before analysis. The Calibur flow cytometer (BD Biosciences, San Jose, Calif.) was used to determine caspase-1 active (Caspase-1^+) and 7-AAD^+ cells. Data were analyzed with the FlowJo software (Tree Star, Ashland, Oreg.).
# Active caspase-1 levels were determined with an APO LOGIX kit (Cell Technology, Mountain View, Calif.). The kit contained a carboxyfluorescein (FAM) (excitation/emission (nm): 490/520)-labeled peptide fluoromethyl ketone (FMK) caspase-1 inhibitor (FAM-YVAD-FMK), which irreversibly binds to active caspase-1. The procedures were performed according to the manufacturer's instructions. HAECs were cultured in 6-well dishes and serum-starved overnight to ensure quiescence of the cells before treatment. The next day, HAECs were treated with the indicated stimuli for 6 h. Cells were harvested and suspended at 1×10^6 cells/ml. The cell suspension (150 μl) was incubated in 37° C. with 1× FAM-YVAD-FMK for 1 h. After being washed with 1× washing buffer, the cells were fixed with fixative buffer and stored in 4° C. for up to 24 h. To determine the cell membrane integrity, the unfixed cells were stained with 7-AAD (Pharmingen) (0.25 μg/test) and incubated for no more than 10 min before analysis.
# (§2) All flow cytometric data were analyzed by using the FlowJo software (Tree Star, Ashland, Oreg.). The uncompensated data were collected from the flow cytometer (either FACSCalibur flow cytometer or LSRII flow cytometer; BD Biosciences). Forward and side scatter gates were used to select live cell populations from clumps and debris. The positive gating was determined by its matched IgG control, and single staining was used to determine the compensation parameter. Different gates were established to analyze the data according to cell size as described in our figures.
# HAECs [1] = experiment: Caspase-1/7-AAD co-staining for pyroptosis in HAECs
# Method: FIG. 7, comprising FIG. 7A through FIG. 7D, depicts experimental results showing Oxidized low-density lipoprotein (oxLDL) and its components induce caspase-1 (casp-1) activation in human aortic endothelial cells (HAECs) via a reactive oxygen species (ROS)-mediated p-athway. FIG. 7A depicts pyroptotic cell death in HAECs caused by activation of casp-1 induced by oxLDL and its components. HAECs were cultured and treated with low-density lipoprotein (LDL; 100 μg/mL), oxLDL (100 μg/mL), oxLDL-derivatives lysophosphatidic acid (LPA, 100 μM), or lysophosphatidylcholine (LPC, 15 μM) as indicated for 6 hours. Casp-1 activity was determined by a commercial kit, and 7-aminoactinomycin D (7-AAD) fluorescence dye was used to determine the cell membrane integrity. Casp-1^+/7-AAD^+ cells were gated as pyrototic cells (Q3), casp-1^+ single positive cells (Q2) were gated as inflammatory cells, and 7-AAD^+ single positive cells (Q4) were gated as necrotic cells. FIG. 7B depicts ROS levels in pyroptotic cells. ROS levels were determined by dihydroethidium (DHE) fluorescence dye staining, and the mean fluorescence intensity (MFI) of DHE^+ cell fraction was determined. […] Allopurinol (1 mmol/L) and Apocynin (100 μM) were added 1 hour before oxLDL treatment. HAECs were then treated with oxLDL (100 μg/mL) for 6 hours and stained for caspase-1 activity. FIG. 7D depicts mRNA upregulation of inflammasome components, including NLRP1 (Nod-like receptor protein 1), NLRP3 (Nod-like receptor 3), PYCARD (or ASC, inflammasome adaptor apoptosis-associated speck-like protein containing a CARD), caspase-1, and IL-1β (interleukin-1β) in HAECs treated with oxLDL. Data are expressed as mean±SE. *P<0.05, changes with statistical significance.
# as §1
# Active caspase-1 levels were determined with an APO LOGIX kit (Cell Technology, Mountain View, Calif.). The kit contained a carboxyfluorescein (FAM) (excitation/emission (nm): 490/520)-labeled peptide fluoromethyl ketone (FMK) caspase-1 inhibitor (FAM-YVAD-FMK), which irreversibly binds to active caspase-1. The procedures were performed according to the manufacturer's instructions. HAECs were cultured in 6-well dishes and serum-starved overnight to ensure quiescence of the cells before treatment. The next day, HAECs were treated with the indicated stimuli for 6 h. Cells were harvested and suspended at 1×10^6 cells/ml. […]
# VEGFR-2 = VEGFR-2 expression in LPC-treated HAECs by flow cytometry; conditions: LPC (30 μM) 6 h; caspase-1 inhibitor or Sirt-1 activator 10 μM pretreatment where named
# Method: FIG. 17, comprising FIG. 17A through FIG. 17D, depicts experimental results showing inhibition of caspase-1 activation and activation of Sirt-1 increase VEGFR-2 expression. FIG. 17A depicts experiments showing caspase-1 depletion increases VEGFR-2 expression. A microarray data-mining analysis was performed by analyzing the indicated microarray dataset deposited in the National Institutes of Health NCBI-Geo-profile database. The gene expression value was determined based on the relative threshold cycle on the database. […] In addition, depletion of caspase-1 slightly increases the expressions of the caspase-1-cleaving substrates cytokines IL-1β and IL-18. […] FIG. 17B depicts caspase-1 inhibition and Sirt-1 activation increase the expression of VEGFR-2 after LPC treatment in HAECs. HAECs pretreated with the caspase-1 inhibitor (10 μM) and Sirt-1 activator (10 μM) and then treated with LPC (30 μM) for 6 h have an increased expression of VEGFR-2. FIG. 17C depicts three cell size gates were established, small, medium, and large according to FSC (y axis); and VEGFR-2 expression (x axis) was measured in those gated cells to analyze differential VEGFR-2 expressions according to the cell size after treatments with LPC (30 μM), caspase-1 inhibitor (10 μm), and Sirt-1 activator (10 μm) for 6 h. […] FIG. 17D depicts bar graphs showing the quantitation data of VEGFR-2 expressions. *, p<0.05.
# as §2
# HAECs [2] = experiment: Tube formation assay in Matrigel; conditions: LPC (30 μm) with or without caspase-1 inhibitor (10 μm), Matrigel 16 h
# Method: FIG. 18, comprising FIG. 18A and FIG. 18B, depicts experimental results showing tube formation, as an in vitro model of angiogenesis, is improved after caspase-1 inhibition in LPC-treated cells. FIG. 18A depicts experiments where HAECs were treated with LPC (30 μm) and caspase-1 inhibitor (10 μm) for 6 h. After the treatment, the cells were incubated in the Matrigel for 16 h for the analysis of tube formation. FIG. 18B depicts bar graph showing the increases of total master segment lengths after the inhibition of caspase-1 in LPC-treated HAECs.*, p<0.05.
# The Matrigel matrix (Bedford, Mass.) was used to coat the 96-well plates. Human aortic endothelial cells were cultured. The cells were treated with caspase-1 inhibitor (Anaspec, Fremont, Calif.) and proatherogenic stimulus LPC for 24 h. HAECs were harvested and suspended. Cell concentration was determined and added to each Matrigel-coated well and incubated for 16-18 h. Images were collected using the inverted microscope.
structure (smiles),measurement,setting,value
"CCCCCCCCCCCCCCCC(=O)OC[C@@H](O)COP(=O)([O-])OCC[N+](C)(C)C [LPC, 1-hexadecanoyl-sn-glycerol-3-phosphorylcholine]",caspase-1 activation in larger size of HAECs,caspase-1; large FSC gate,52.8%
same,caspase-1 activation in smaller size of HAECs,caspase-1; small FSC gate,38.2%
same,"induction of inflammation, pyroptosis and necrosis (caspase-1/7-AAD gating)","HAECs [1]; HAECs, 6-hour stimulation, oxLDL 100 μg/mL, LPA 100 μM, LPC 15 μM","induced inflammation, inflammatory cell death (pyroptosis), and necrosis"
same,7-AAD+ pyroptosis in large size of caspase-1(+) HAECs,HAECs [1]; LPC-treated HAECs,9.93%
same,7-AAD+ pyroptosis in medium size of caspase-1(+) HAECs,HAECs [1]; LPC-treated HAECs,20.17%
same,7-AAD+ pyroptosis in smaller size of caspase-1(+) HAECs,HAECs [1]; LPC-treated HAECs,38.77%
same,VEGFR-2 expression in the larger size of HAECs,VEGFR-2,34.3%
same,VEGFR-2 expression in the medium size of HAECs,VEGFR-2,22.1%
same,VEGFR-2 expression in the smaller size of HAECs,VEGFR-2,11.3%
same,total master segment length of tube formation,HAECs [2],317 μm
